# Results as given in patent US20160199369A1, “Extruded Immediate Release Abuse Deterrent Pill” (priority 2013, published 2016).
# Experiments:
# [1] = relative solubility, yes/no; cited from earlier work
# [2] = General solubility of exemplary components; format: physicochemical; details: 200 proof ethanol, filtered through 0.22 micrometer PTFE filter
# From the text: The following table lists the relative solubility of exemplary components of a formulation. A number of different dyes are listed along with their solubility information taken from the various literature sources and tested experimentally (200 proof ethanol and filtered through a 0.22 micrometer PTFE filter).
SMILES,Alcohol Solubility (Literature) [1],Water Solubility [1],Alcohol Solubility (tested) [2]
CCN(Cc1cccc(S(=O)(=O)[O-])c1)c1ccc(C(=C2C=CC(=[N+](CC)Cc3cccc(S(=O)(=O)[O-])c3)C=C2)c2ccccc2S(=O)(=O)[O-])cc1.[Na+].[Na+] [FD&C Blue #1],Yes,Yes,–
O=C1/C(=C2\Nc3ccc(S(=O)(=O)[O-])cc3C2=O)Nc2ccc(S(=O)(=O)[O-])cc21.[Na+].[Na+] [FD&C Blue #2],Yes,Yes,Yes
COc1cc(S(=O)(=O)[O-])c(C)cc1N=Nc1c(O)ccc2cc(S(=O)(=O)[O-])ccc12.[Na+].[Na+] [FD&C Red #40],Yes,Yes,Yes
O=C([O-])C1=NN(c2ccc(S(=O)(=O)[O-])cc2)C(=O)C1N=Nc1ccc(S(=O)(=O)[O-])cc1.[Na+].[Na+].[Na+] (stereo not shown) [FD&C Yellow #5],Yes,Yes,Yes
"COc1ccc2c3c1O[C@H]1C(=O)CC[C@@]4(O)[C@@H](C2)N(C)CC[C@]314.Cl [Oxycodone HCl, reference compound]",Yes,Yes,–
